# Laboratory results from article PMC10384675, “Novel Thiazolidine-2,4-dione-trimethoxybenzene-thiazole Hybrids as Human Topoisomerases Inhibitors” (Pharmaceuticals, 2023).
# Experiments:
# [1] = system: MDA-MB-231 breast cancer cells; assay: MTT cell viability assay, MDA-MB-231; assay type: cell-based; details: Homo sapiens, 72 h
# Protocol: (§1) All of the synthesized compounds (7a–f) were studied to test their anticancer activity toward the estrogen receptor-positive (ER+) MCF-7 and the triple-negative MDA-MB-231 breast cancer cells (ER-, PR- and HER-2/Neu not overexpressed) and A2058 melanoma cells. Cells were incubated for 72 h with different concentrations of the compounds, and then the viability was checked by the MTT assay. […] Moreover, we checked the cytotoxicity of all of the synthesized compounds against the human MCF-10A non-malignant breast epithelial cells and mouse BALB/3T3 embryonic fibroblasts, in order to evaluate their selectivity on cancer cells.
# (§2) The used cell lines (breast cancer cell lines MCF-7 and MDA-MB-231, melanoma cell line A2058 and human mammary epithelial cell line MCF-10A) were obtained from American Type Culture Collection (ATCC, Manassas, VA, USA) and cultured as already reported. The mouse BALB/3T3 embryonic fibroblasts were also purchased from American Type Culture Collection (ATCC, Manassas, VA, USA) and cultured in DMEM high glucose supplemented with 10% bovine calf serum (BCS) and 100 U mL^−1 penicillin/streptomycin.
# (§3) MTT assay (Sigma Aldrich (St. Louis, MO, USA)) was performed for evaluating the in vitro anticancer activities of the compounds, as previously indicated. Different concentrations (0.1, 1, 10, 25, 50, and 100 μM) of the compounds were employed, with a 72 h endpoint. IC50 values were obtained from the percent (%) of control using GraphPad Prism 9 (GraphPad Software, La Jolla, CA, USA).
# [2] = system: MCF-7 breast cancer cells; assay: MTT cell viability assay, MCF-7; assay type: cell-based, human
# Protocol: as §1, §2, §3
# [3] = system: mouse BALB/3T3 embryonic fibroblasts; assay: MTT cytotoxicity assay, BALB/3T3; assay type: cell-based; details: 72 h, normal cells
# Protocol: as §1, §2, §3
# [4] = system: human MCF-10A non-malignant breast epithelial cells; assay: MTT cytotoxicity assay, MCF-10A; assay type: cell-based; details: 72 h, normal cells
# Protocol: as §1, §2, §3
# [5] = biological target: T1, hTopo II (Homo sapiens, UniProt P11388); assay: hTopo II decatenation assay; assay type: biochemical; set-up: key to Topoisomerase Inhibition hTopo II: (+) inhibition; (−) no inhibition; (+/−) partial inhibition
# T1 construct: purchased TopoGEN, Port Orange, FL
# T1 sequence (P11388 whole entry): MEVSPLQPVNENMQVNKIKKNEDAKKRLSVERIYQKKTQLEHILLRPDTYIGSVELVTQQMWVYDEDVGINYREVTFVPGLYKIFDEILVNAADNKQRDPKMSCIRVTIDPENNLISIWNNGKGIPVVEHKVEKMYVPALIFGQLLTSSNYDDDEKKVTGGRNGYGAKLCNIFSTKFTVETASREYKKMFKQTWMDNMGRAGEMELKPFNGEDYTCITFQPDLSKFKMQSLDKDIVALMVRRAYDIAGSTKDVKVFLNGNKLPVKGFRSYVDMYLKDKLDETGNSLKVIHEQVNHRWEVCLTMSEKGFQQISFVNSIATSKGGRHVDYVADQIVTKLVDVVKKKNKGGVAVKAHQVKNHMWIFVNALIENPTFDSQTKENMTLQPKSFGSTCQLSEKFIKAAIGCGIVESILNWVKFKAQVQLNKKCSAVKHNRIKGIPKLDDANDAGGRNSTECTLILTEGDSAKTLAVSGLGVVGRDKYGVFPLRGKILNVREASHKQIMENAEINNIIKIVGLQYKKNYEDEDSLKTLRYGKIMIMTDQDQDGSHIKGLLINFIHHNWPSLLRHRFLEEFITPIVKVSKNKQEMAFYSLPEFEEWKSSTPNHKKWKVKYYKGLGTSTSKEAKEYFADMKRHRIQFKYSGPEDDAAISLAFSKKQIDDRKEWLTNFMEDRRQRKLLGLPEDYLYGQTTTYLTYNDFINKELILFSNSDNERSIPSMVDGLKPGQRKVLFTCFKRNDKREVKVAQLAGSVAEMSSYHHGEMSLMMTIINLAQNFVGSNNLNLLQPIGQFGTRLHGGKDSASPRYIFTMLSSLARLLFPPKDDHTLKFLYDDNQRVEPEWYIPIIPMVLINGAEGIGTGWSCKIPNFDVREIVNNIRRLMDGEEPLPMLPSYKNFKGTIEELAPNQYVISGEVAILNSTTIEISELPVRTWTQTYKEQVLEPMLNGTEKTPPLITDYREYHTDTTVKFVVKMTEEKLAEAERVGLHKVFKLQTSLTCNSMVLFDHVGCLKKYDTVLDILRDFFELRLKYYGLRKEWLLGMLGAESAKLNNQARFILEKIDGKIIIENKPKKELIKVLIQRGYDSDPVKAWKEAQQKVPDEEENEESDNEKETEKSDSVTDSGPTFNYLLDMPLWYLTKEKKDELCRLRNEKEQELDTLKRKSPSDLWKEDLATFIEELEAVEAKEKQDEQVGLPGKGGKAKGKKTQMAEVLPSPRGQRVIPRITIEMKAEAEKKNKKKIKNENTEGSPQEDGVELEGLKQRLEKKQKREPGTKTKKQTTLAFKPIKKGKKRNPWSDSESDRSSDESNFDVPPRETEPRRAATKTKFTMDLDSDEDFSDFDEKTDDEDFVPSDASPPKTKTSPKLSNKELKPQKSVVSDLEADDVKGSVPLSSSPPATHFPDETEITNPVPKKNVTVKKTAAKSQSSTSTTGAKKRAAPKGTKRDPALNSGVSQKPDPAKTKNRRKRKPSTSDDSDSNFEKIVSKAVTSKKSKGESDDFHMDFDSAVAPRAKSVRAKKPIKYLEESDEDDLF
# Protocol: The linear kDNA (Figure 4a,b, lanes A), decatenated kDNA (Figure 4a,b, lanes B) and the catenated circles of kDNA (Figure 4a,b, lanes C) were used as markers. A parallel experiment was performed using ellipticine as reference molecule.
# hTopo I relaxation assays were performed by incubating the substrate (supercoiled pHOT1) with the recombinant hTopo I (TopoGEN, Port Orange, FL, USA) and compounds, as indicated in the supplier protocol (TopoGEN, Port Orange, FL, USA), with some revisions. hTopo II decatenation assays were conducted by incubating the kinetoplast DNA substrate (kDNA) with the hTopo II (TopoGEN, Port Orange, FL) and studied compounds, as indicated in the supplier procedures (TopoGEN, Port Orange, FL, USA), with some changes as in [80].
# Figure 4 hTopo II decatenation assay. […] The same experiment was performed using ellipticine (c). Lane 1, decatenated kDNA marker; lane 2, linear kDNA marker; lane 3, CTRL (DMSO), lanes 4–5, ellipticine 10 and 50 µM, respectively.
# [6] = system: MCF-7 cells; assay: Mitochondria and cytochrome c immunostaining; assay type: cell-based, human; details: at IC50 value, 24 h
# Source text: In order to establish whether the observed cell death could be ascribed to the induction of the apoptotic pathway, we performed immunostaining assays using an anti-cytochrome c (cyt c) antibody and the mitochondrial probe MitoTracker Deep Red FM, which would allow us to verify whether cyt c was released from mitochondria to the cell cytoplasm or not. In Figure 6, panels B,C, it is possible to visualize the intracellular localization of cyt c (green fluorescence) and mitochondria (red fluorescence). […] Indeed, as visible in the overlay channel (panel D), the two fluorescence signals (red and green) were no longer superimposable.
# Cells grown on glass coverslips in full medium were serum-deprived for 24 h, then the compound (or only vehicle) was added (24 h, 7e at its IC50 value). Next, cells were incubated with a staining solution containing MitoTracker® Deep Red FM probe (MitoTracker® Mitochondrion-Selective Probes, Invitrogen European Headquarters, Paisley PA4 9RF, UK; fluorescence excitation = 644, fluorescence emission = 665) for 20 min, at 37 °C. After a PBS wash, cells were fixed (cold methanol, 15 min at −20 °C) and incubated with the mouse anti-cytochrome c (556 433) primary antibody, purchased from BD, diluted in the blocking solution (4 °C/overnight), as described in [60]. […]
# [7] = system: caspase-8; assay: Caspase-Glo assay, caspase-8; assay type: cell-based, human; details: MCF-7 cells, at IC50 value, 24 h, vs vehicle
# Protocol: (§4) Once established that mitochondria were damaged and cyt c released into the cytoplasm, we evaluated the ability of compound 7e treatment (used at its IC50 value) in modulating caspase activity.
# (§5) The caspase-Glo Assay (Caspase-Glo® 3/7, 8 and 9 Assay Systems, Promega Corporation, Madison, WI) was used to detect caspase-3/7, -8 and -9 activities, as reported in [82]. Briefly, cells were grown in white-walled 96-well plates, treated with the compound, and 100 µL of each […] was added.
# (§6) Figure 7 Caspase activity in MCF-7 cells. […] Columns mean, bars SD; * p < 0.001; n.s., not significant (treated vs. CTRL).
# [8] = system: caspase-9; assay: Caspase-Glo assay, caspase-9; assay type: cell-based, human; details: MCF-7 cells, at IC50 value, 24 h, vs vehicle
# Protocol: as §4, §5, §6
smiles,measurement,setting,value
"COc1cc(/C=C2\SC(=O)N(CC(=O)Nc3nc(-c4ccc(Br)cc4)cs3)C2=O)cc(OC)c1OC [compound 7e, (Z)-2-(5-(3,4,5-Trimethoxybenzylidene)thiazolidin-2,4-dion-3-yl)-N-(4-(4-bromophenyl)thiazol-2-yl)acetamide]",IC50,[1],41.2 ± 0.9 µM
same,IC50,"[2]; Homo sapiens, MCF7, MTT, 72 h",3.1 ± 0.6 µM
same,fold more active against MCF-7 than against mouse BALB/3T3 embryonic fibroblasts,[2]; MCF-7 vs BALB/3T3 IC50,about 11 fold
same,IC50,[3],35 ± 0.6 µM
same,IC50,[4],> 100 µM
same,Topoisomerase Inhibition hTopo II,[5]; 10 µM,−
same,Topoisomerase Inhibition hTopo II,[5]; 50 µM,+
same,cytochrome c release from mitochondria into the cytoplasm,[6],cyt c was released into the cell cytoplasm
same,caspase-8 activity,[7],no change
same,caspase-9 activity,[8],noticeable increase
